Laboratory results as given in US10669238B2, “Irreversible bruton's tyrosine kinase inhibitor” (HEFEI INSTITUTES OF PHYSICAL SCIENCE, CHINESE ACADEMY OF …, priority 2016, dated 2020).

How the values were obtained:
Type in all cases: cell-based
[1] = test system: multiple myeloma cell lines RPM18226; experiment: Cell proliferation (Cell Titer-Glo), RPMI8226; details: Homo sapiens, RPMI-8226; RPMI8226, 72 hours; read-out: Effects on cell proliferation (GI50)
Experimental: (§1) The selectivity of Compound 1 in inhibiting the proliferation of cancer cells was further evaluated by testing the effect of Btk inhibitors on the growth of cancer cells. […]
(§2) In this example different concentrations (0.000508 μM, 0.00152 μM, 0.00457 μM, 0.0137 μM, 0.0411 μM, 0.123 μM, 0.370 μM, 1.11 μM, 3.33 μM, 10 μM) of Compound 1 and Compound 6 were respectively added into the above cells which were then cultured for 72 hours. The number of viable cells was determined via quantitative determination of ATP in living cells by using Cell Titer-Glo® (Promega, the USA) Chemical Luminescent Cell Viability Assay kit.

[2] = test system: acute myeloid leukemia cell lines MOLM14; experiment: Cell proliferation (Cell Titer-Glo), MOLM14; details: Homo sapiens, MOLM-14; MOLM14, 72 hours; read-out: Effects on cell proliferation (GI50)
Experimental: as §1, §2

B-lymphoma cell Ramos = experiment: Cell proliferation (Cell Titer-Glo), Ramos; details: Homo sapiens, Romas, 72 hours, read-out: Effects on cell proliferation (GI50)
Experimental: as §1, §2

[3] = target: T1, TEL-BMX-BaF3 cells (stably expressing TEL-BMX activated kinase) (Homo sapiens, UniProt P51813); experiment: Cell proliferation (Cell Titer-Glo), BaF3-tel-BMX; details: BaF3-tel-BMX (mouse BaF3 cells), 72 hours; read-out: Effects on cell proliferation (GI50)
T1 construct: expressed in transfected cells; host or cells: mouse BaF3 cells, retroviral MSCV-Puro; the other entry of the earlier key: ETV6 (P41212, Transcription factor ETV6)
T1 sequence (P51813 417-675 limits assumed): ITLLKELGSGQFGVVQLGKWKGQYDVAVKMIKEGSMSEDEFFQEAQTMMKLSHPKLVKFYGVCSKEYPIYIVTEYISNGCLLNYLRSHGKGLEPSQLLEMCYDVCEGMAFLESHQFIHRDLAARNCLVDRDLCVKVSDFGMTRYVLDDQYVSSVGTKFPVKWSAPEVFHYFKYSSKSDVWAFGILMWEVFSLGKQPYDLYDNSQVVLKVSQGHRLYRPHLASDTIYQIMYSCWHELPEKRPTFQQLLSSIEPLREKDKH
Experimental: as §1, §2

leukemic cells K562 = experiment: Cell proliferation (Cell Titer-Glo), K562; details: Homo sapiens; K562, 72 hours; read-out: Effects on cell proliferation (GI50)
Experimental: as §1, §2

[4] = test system: U2932 (B-cell lymphoma cells); experiment: Cell apoptosis (PARP and Caspase 3 cleavage) in U2932
Experimental: (§3) Various concentrations (0.5 μM, 1 μM, 5 μM, 10 μM) of Compound 1 was administered to Pfeiffer (human diffuse large cell lymphoma B lymphocytes, purchased from Cobioer Biosciences Co., LTD (Nanjing)) and U2932 (B-cell lymphoma cells, purchased from ATCC) in order to confirm whether cell death after the administration was caused by apoptosis or necrosis. After 48 hours, effects of Compound 1 on protein cleavage of the DNA repairase poly(ADP-ribose) polymerase (PARP) and Caspase (cysteinyl aspartate-specific proteinase) 3 that were closely related to cell apoptosis was examined.

[5] = test system: Pfeiffer (human diffuse large cell lymphoma B lymphocytes); experiment: Cell apoptosis (PARP and Caspase 3 cleavage) in Pfeiffer; details: 48 hours
Experimental: as §3

[6] = test system: U2932 (B-cell lymphoma cells); experiment: Cell cycle distribution by flow cytometry in U2932; details: U2932, 10 μM, 48 hours
Experimental: (§4) Effect of Compound 1 on cell cycle distribution was examined respectively in Pfeiffer (human diffuse large cell lymphoma B lymphocytes, purchased from Cobioer Biosciences Co., LTD (Nanjing)) and U2932 (B-cell lymphoma cells, purchased from ATCC) cells in order to study the growth cycle to which the cells were blocked upon compound administration. The above cells were treated with various concentrations (0.5 μM, 1 μM, 5 μM, 10 μM) of Compound 1, 10 μM of PC132765 and 10 μM of Compound 6 (FIG. 4a) or 1 μM of Compound 6 (FIG. 4b) for 48 hours, and then cells were collected and washed twice with 1×PBS buffer, and fixed with 75% ethanol at −20° C. for 24 hours, washed again with 1×PBS buffer twice, followed by addition of 0.5 mL 1×PBS buffer and 0.5 mL of PI dyeing liquor (purchased from BD Bioscience, USA), and then the cells were placed in the dark at 37° C. for dyeing 15 minutes and the cell cycle distribution was detected by flow cytometry (BD FACS Calibur).
(§5) Experiments shown in FIGS. 4a-4b reflected that Compound 1 influenced the cell cycle of both two cell strains.

[7] = test system: Pfeiffer (human diffuse large cell lymphoma B lymphocytes); experiment: Cell cycle distribution by flow cytometry in Pfeiffer; details: 10 μM, 48 hours
Experimental: as §4, §5

GI50 [1] [µM] | GI50 [2] [µM] | GI50 (B-lymphoma cell Ramos) [µM] | GI50 [3] [µM] | GI50 (leukemic cells K562) [µM] | Structure (SMILES) | cleavage of DNA repairase poly(ADP-ribose) polymerase (PARP) ([4]; U2932, 10 μM, 48 hours) | cell apoptosis ([4]; U2932, 48 hours) | cleavage of DNA repairase poly(ADP-ribose) polymerase (PARP) ([5]; 10 μM) | cell apoptosis [5] | effect on cell cycle [6] | effect on cell cycle [7]
4.7 | > 10 | 4.6 | 4.1 | > 10 | CCC(=O)Nc1cc(Nc2cc(-c3cccc(NC(=O)c4ccc(C(C)(C)C)cc4)c3C)cn(C)c2=O)ccc1C(=O)N1CCOCC1 [Compound 6, N-(3-(5-((3-propanamide-4-(morpholin-4-carbonyl)phenyl)amino)-1-methyl-6-oxo-1,6-dihydropyridin-3-yl)-2-methylphenyl)-4-(tert-butyl)benzamide] | – | – | – | – | – | –
2.9 | 6.4 | 3.5 | 0.38 | 4.2 | C=CC(=O)Nc1cc(Nc2cc(-c3cccc(NC(=O)c4ccc(C(C)(C)C)cc4)c3C)cn(C)c2=O)ccc1C(=O)N1CCOCC1 [Compound 1, N-(3-(5-((3-acrylamide-4-(morpholin-4-carbonyl)phenyl)amino)-1-methyl-6-oxo-1,6-dihydropyridin-3-yl)-2-methylphenyl)-4-(tert-butyl)benzamide] | significant cleavage | could lead to cell apoptosis | significant cleavage | could lead to cell apoptosis | significant cell cycle arrest in G0-G1 | significant cell cycle arrest in G0-G1
